Source: the supplement of paper PMC5908809

Columns and labels:
SNK-6 (IL-2 2.5 ng/mL) [1] = experiment: drug sensitivity score (DSS) (DSS units); higher = more sensitive; extreme values may be limits of the assay; conditions: 72 h
NK-92 (IL-2 2.5 ng/mL) [2] = experiment: as above; conditions: 72 h
[3] = test system: normal primary NK cells, pool 3 (3 donors) (IL-2 2.5 ng/mL); experiment: as above; conditions: 72 h
[4] = test system: normal primary NK cells, pool 1 (3 donors) (IL-2 2.5 ng/mL); experiment: as above; conditions: 72 h
NK-YS (IL-2 2.5 ng/mL) [5] = experiment: as above; conditions: 72 h
IMC-1 (IL-2 20 ng/mL) [6] = experiment: as above; conditions: 72 h
YT (IL-2 2.5 ng/mL) [7] = experiment: as above; conditions: 72 h
NKL (IL-2 2.5 ng/mL) [8] = experiment: as above; conditions: 72 h
DERL-7 (IL-2 2.5 ng/mL) [9] = experiment: as above; conditions: 72 h
[10] = test system: normal primary NK cells, pool 1 (3 donors), resting (IL-2 0 ng/mL); experiment: as above; conditions: 72 h
KAI3 (IL-2 2.5 ng/mL) [11] = experiment: as above; conditions: 72 h
[12] = test system: normal primary NK cells, pool 2 (3 donors) (IL-2 2.5 ng/mL); experiment: as above; conditions: 72 h
KHYG-1 (IL-2 2.5 ng/mL) [13] = experiment: as above; conditions: 72 h
[14] = test system: normal NK cells expanded with K562-aAPC; experiment: as above; conditions: 72 h; IL-2 2.5 ng/mL
Description: (§1)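 Drug sensitivity and resistance testing on K562-aAPC-expanded normal NK cells: 5 concentrations (10-fold steps over a 10,000-fold range), 72 h at 37 °C, viability by CellTiter-Glo normalised to DMSO and benzethonium chloride controls; DSS from the fitted curve.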

SNK-6 (IL-2 2.5 ng/mL) [15] = experiment: percent inhibition of viability; higher = more inhibition; conditions: 72 h
NK-92 (IL-2 2.5 ng/mL) [16] = experiment: as above; conditions: 72 h
[17] = test system: normal primary NK cells, pool 3 (3 donors) (IL-2 2.5 ng/mL); experiment: as above; conditions: 72 h
[18] = test system: normal primary NK cells, pool 1 (3 donors) (IL-2 2.5 ng/mL); experiment: as above; conditions: 72 h
NK-YS (IL-2 2.5 ng/mL) [19] = experiment: as above; conditions: 72 h
IMC-1 (IL-2 20 ng/mL) [20] = experiment: as above; conditions: 72 h
YT (IL-2 2.5 ng/mL) [21] = experiment: as above; conditions: 72 h
NKL (IL-2 2.5 ng/mL) [22] = experiment: as above; conditions: 72 h
DERL-7 (IL-2 2.5 ng/mL) [23] = experiment: as above; conditions: 72 h
[24] = test system: normal primary NK cells, pool 1 (3 donors), resting (IL-2 0 ng/mL); experiment: as above; conditions: 72 h
KAI3 (IL-2 2.5 ng/mL) [25] = experiment: as above; conditions: 72 h
[26] = test system: normal primary NK cells, pool 2 (3 donors) (IL-2 2.5 ng/mL); experiment: as above; conditions: 72 h
KHYG-1 (IL-2 2.5 ng/mL) [27] = experiment: as above; conditions: 72 h
[28] = test system: normal NK cells expanded with K562-aAPC; experiment: as above; conditions: 72 h, IL-2 2.5 ng/mL
Description: as §1

Cc1cc(Nc2cc(N3CCN(C)CC3)nc(/C=C/c3ccccc3)n2)n[nH]1 [ENMD-2076] (max concentration tested 10000 nM)
Conditions	drug sensitivity score
DERL-7 (IL-2 2.5 ng/mL) [9]	15
IMC-1 (IL-2 20 ng/mL) [6]	14.2
KAI3 (IL-2 2.5 ng/mL) [11]	18.1
KHYG-1 (IL-2 2.5 ng/mL) [13]	15.4
NK-92 (IL-2 2.5 ng/mL) [2]	11.8
NK-YS (IL-2 2.5 ng/mL) [5]	15.4
NKL (IL-2 2.5 ng/mL) [8]	14
SNK-6 (IL-2 2.5 ng/mL) [1]	12.2
YT (IL-2 2.5 ng/mL) [7]	10.1
[3]	7.76
[4]	8.98
[10]	7.17
[12]	9.3
[14]	12.9

percent inhibition of viability [%]
Conditions	1 nM	10 nM	100 nM	1000 nM	10000 nM
DERL-7 (IL-2 2.5 ng/mL) [23]	-3.97	1.55	8.93	73.3	100
IMC-1 (IL-2 20 ng/mL) [20]	5.76	6.97	6.68	69	99.3
KAI3 (IL-2 2.5 ng/mL) [25]	11.4	13.8	24.2	81.2	103
KHYG-1 (IL-2 2.5 ng/mL) [27]	3.13	4.35	5.27	79.3	103
NK-92 (IL-2 2.5 ng/mL) [16]	11.8	8.87	7.47	52.2	100
NK-YS (IL-2 2.5 ng/mL) [19]	4	7.48	10.6	76.2	84.6
NKL (IL-2 2.5 ng/mL) [22]	2.47	5.63	17.7	61.2	96.1
SNK-6 (IL-2 2.5 ng/mL) [15]	5.5	2.27	-27.8	68.5	79.8
YT (IL-2 2.5 ng/mL) [21]	5.28	5.36	3.17	31.5	101
[17]	-2.94	-6.14	-2.82	14.7	96.1
[18]	-3.71	-10.8	-1.53	25	93.9
[24]	-0.34	-9.97	-7.43	16.7	80.9
[26]	-1.71	3	0.94	31	89.3
[28]	2.38	-3.79	7	60.5	99.8
